Experimental data from patent publication US12371402B2, “Mitochondrial activity inhibitors targeting tumoral metabolism” (CENTRE LEON BERARD, priority 2018, dated 2025).

Legend:
[1] = tested on: Diffuse Large B Cell Lymphoma (SUDHL-4 model) xenograft; experiment: CDX xenograft tumor volume, SUDHL-4 model; format: in vivo, female SCID mice; conditions: SUDHL-4 xenograft, 50 mg/kg intraperitoneal five times a week, versus DMSO control
Excerpt: (§1) CDX (cell derived xenografts) models of human NHL were used: Follicular Lymphoma (RL model), Diffuse Large B Cell Lymphoma (SUDHL-4 model). Cells were subcutaneously implanted; since the tumor growth was not homogeneous, it was decided to implant surgically 2×2 mm pieces from these initial tumours. Animals were female SCID mice.
(§2) Mice were randomized when the tumors reach a mean volume of 100 mm^3 for the 2 groups (control and compound 1). […] The endpoints are defined by animal ethics as a tumor diameter of >18 mm, significant weight loss or alteration of animal well-being. In order to assess the effectiveness of the compound 1 on tumorigenesis, tumor volume was measured three times a week. The sizes of the primary tumors were measured using calipers and the tumor volume (TV) was extrapolated to a sphere using the formula TV=4/3 π×r3, by calculating the mean radius from the two measurements. The median and standard deviation were also calculated for each group. Median is preferred to mean in order to exclude the extreme values.
(§3) COMPOUND 1 was administered by intraperitoneal injection five times a week, at dose 50 mg/kg. Control DMSO was administered also by intraperitoneal injection five times a week. […]
(§4) Unless specified, the non-parametric Mann-Whitney test was performed on the tumor volume values (mm^3) measured on the day of the first euthanasia.

[2] = tested on: Karpas-384 gamma/delta PTCL lymphoma cells; experiment: WST-1 cell viability test, Karpas-384 lymphoma cells; format: cell-based; conditions: Homo sapiens, 24 hours incubation
Excerpt: (§5) RL cells (from ATCC, CRL-2261), SUDHL-4 cells (from ATCC, CRL-2957), GRANTA cells, BJAB Burkitt lymphoma cells, SUDHL4 DLBCL lymphoma cells, REC-1 Mantle lymphoma cells, RL follicular lymphoma cells, MTA NK/T lymphoma cells, HUT-78 Sesary T lymphoma cells, Karpas-384 gamma/delta PTCL lymphoma cells and SR-786 ALCL/Alk+ lymphoma Wild type/rescue MEF_LKB1+/+(mouse embryonic fibroblasts) cells were taken as a control; and mutated MEF_LKB−/− cells in which LKB1 gene was invalidated (Bardeesy et al., 2002). All cells were grown in flasks in RPMI 1640 Glutamax medium 11 mM Glucose supplemented with 10% fetal bovine serum and 1% penicillin-streptomycin medium supplemented with 10% fetal bovine serum and 1% penicillin-streptomycin. Cells were maintained at a constant temperature of 37° C. in a humidified atmosphere containing 5% CO2/95% air.
(§6) Drugs (compound 1 and Metformin) were initially diluted in DMSO (=vehicle dimethylsulfoxide). […] Lymphoma cells in exponential phase of growth were counted and assessed for more than 95% viability by trypan blue coloration. […] The formazan dye produced by viable cells can be quantified by measuring the absorbance at 440 nm. Cell viability was assessed comparing wells containing drugs to those with vehicle only. […]

[3] = tested on: mitochondrial ECT complex1; experiment: Oxygen consumption in permeabilized fresh hepatocytes; format: cell-based; conditions: permeabilized rat liver hepatocytes, state 3, 2 min after addition
Protocol: Rat liver hepatocytes were isolated from overnight-starved animals by enzymatic digestion with collagenase according to the method of Berry and Friend modified by Groen.
Primary hepatocytes were directly used after isolation (for metabolic analyses). Cells were maintained at a constant temperature of 37° C. in a humidified atmosphere containing 5% CO2/95% air. The medium was removed after 4 h (time necessary for cell attachment) and replaced by fresh medium.
(§7) Oxygen consumption was measured in a thermostatically controlled oxigraph vessel equipped with a Clarck oxygen electrode at 37° C. (Strathkelvin MS200A system).
(§8) Experiment was started by the addition of 100 μg/ml digitonine and either 5 mM Glutamate plus 2.5 mM Malate or 5 mM Succinate plus 1 μM rotenone, followed by the addition of 500 μM ADP (state 3) then 2 μg/ml Oligomycin (state 4).
Primary hepatocytes: 5.105 fresh hepatocytes were added in the oxigraph chamber containing respiration buffer (KET buffer: KCl 125 mM, EGTA 1 mM, Tris 20 mM) supplemented with 0.1% BSA, 5 mM inorganic phosphate (Pi). The final volume was 1 ml. Oxygen consumption rate was measured before and after the addition of compound 1 (1, 20, 50 or 100 μM) either in resting (state 2) or phosphorylating (state 3) condition.
(§9) All measures were realized 2 min after drugs addition.

[4] = tested on: Follicular Lymphoma (RL model) xenograft; experiment: CDX xenograft tumor volume, RL model; format: in vivo, female SCID mice; conditions: 50 mg/kg intraperitoneal five times a week, versus DMSO control
Excerpt: as §1, §2, §3, §4

[5] = tested on: RL follicular lymphoma cells; experiment: WST-1 cell viability test, RL follicular lymphoma cells; format: cell-based; conditions: Homo sapiens, 24 hours incubation
Excerpt: as §5, §6

[6] = tested on: mitochondrial ECT complex1; experiment: Oxygen consumption in permeabilized tumoral cells (RL, SUDHL4, GRANTA); format: cell-based, human
Protocol: Human Cell lines: RL cells (from ATCC, CRL-2261) and SU-DHL-4 cells (from ATCC, CRL-2957) were grown in flasks in RPMI 1640—Glutamax medium supplemented with 10% fetal bovine serum and 1% penicillin-streptomycin. GRANTA cells were grown in flasks in DMEM-Glutamax medium supplemented with 10% fetal bovine serum and 1% penicillin-streptomycin. Cells were maintained at a constant temperature of 37° C. in a humidified atmosphere containing 5% CO2/95% air.
as §7, §8
Cell lines: RL, SU-DHL-4 or GRANTA cells were centrifuged and counted. A cell suspension (100 million of trypan blue negative cells per ml) was prepared in respiration buffer. 10 million cells were added in the oxigraph chamber containing respiration buffer. The final volume was 1 ml. compound 1 (0.5 to 20 μM) was added to permeabilized cells after the addition of ADP or oligomycin.
as §9

[7] = tested on: Human B lymphoma and T lymphoma cell lines; experiment: WST-1 cell viability test, panel of human B and T lymphoma cell lines; format: cell-based
Excerpt: as §5, §6

[8] = tested on: MEF_LKB-/- and MEF_LKB1+/+ cells; experiment: WST-1 cell viability test, MEF cells with or without the LKB1 gene; format: cell-based, mouse; conditions: MEF_LKB-/- versus MEF_LKB1+/+, 24 hours
Protocol: (§10) Drugs (compound 1 and Metformin) were initially diluted in DMSO (=vehicle dimethylsulfoxide). Appropriate dilutions of these stocks were performed in DMSO and finally in culture medium; 15 μl of each dilution was distributed in 4 wells (replicates) according to the plate schedule to obtain final drug concentrations (0.1 μM to 1 mM for metformin and 1 μM to 200 μM for compound 1) after cells were added. Control wells with vehicle at the appropriate dilution only were included. Lymphoma cells in exponential phase of growth were counted and assessed for more than 95% viability by trypan blue coloration. […] Adherent cells (MEFs cells and INS-1 cells were seeded the day before to obtain 80% confluence the day of experiment. Culture medium was renewed with 35 μL fresh medium and 15 μl of appropriated drug dilution was then added. These plates were incubated 24 hours at 37° C./5% CO2. Then addition of 5 μl of WST-1 cell proliferation reagent (Roche, #11644807001) was performed, before incubation 2-4 hours at 37° C. and lecture of the absorbance following the manufacturer instructions. WST-1 assays are non-radioactive, rapid and more sensitive than MTT, XTT, or MTS-based assays. The WST-1 assay is based on the cleavage of the tetrazolium salt WST-1 to formazan by cellular mitochondrial dehydrogenases. […] Cell viability was assessed comparing wells containing drugs to those with vehicle only. […]

[9] = tested on: INS-1 cells; experiment: WST-1 cell viability test, pancreatic neuroendocrine tumor cell line INS-1; format: cell-based
Protocol: as §10

[10] = tested on: panel of hematological cell lines; experiment: Live cell number by flow cytometry, panel of hematological cell lines; format: cell-based, human; conditions: 10 μM, 48 hours
Protocol: (§11) All the cells were routinely maintained in RPMI 1640 culture medium 11 mM glucose supplemented with 10% FCS. The day of experiment, cells (80 to 100.10^3/well) in exponential phase of growth were seeded in 96 wells plates, in 100 μl of culture medium final volume, in absence (not treated: NT) or presence of indicated compounds concentrations. Stocks of compounds were 10 mM in DMSO, and final DMSO concentration in assay was 0.1%. The control not treated (NT) assays contains 0.1% DMSO. After 48h of incubation at 37° C., cells were immediately analyzed by flow cytometry. Apoptosis was detected using Annexin V/PI staining protocol, according to manufacturer indications.
(§12) Compounds 2 to 4 (named respectively C2 to C4 in the figures) were tested and compared with IACS-010759 (IACS), an OXPHOS inhibitor in clinical phase 1 trial which is assessed in parallel (Molina et al., 2018).

[11] = tested on: Karpas-422 DLBCL lymphoma; experiment: Apoptosis by Annexin V/PI flow cytometry, Karpas-422; format: cell-based, human; conditions: Karpas-422, 10 μM, 48 hours
Protocol: as §11, §12

N=C(Nc1ccccc1)SCCCCCCSC(=N)Nc1ccccc1 [compound 1]
tumor growth (tumor volume) [1]: reduces tumor growth | IC50 [2]: < 10 µM | mitochondrial oxygen consumption [3]: inhibits mitochondrial oxygen consumption in all cells tested | tumor growth (tumor volume) [4]: reduces tumor growth | IC50 [5]: < 10 µM | mitochondrial oxygen consumption ([6]; permeabilized RL, SUDHL4 and GRANTA cells, state 3, 2 min after addition): inhibits mitochondrial oxygen consumption in all cells tested | dose inhibiting oxygen consumption, tumoral cells versus fresh hepatocytes ([6]; permeabilized tumoral cells (RL, SUDHL4, GRANTA) compared with permeabilized fresh hepatocytes): about 25 times smaller | IC50 compared with IC50 of metformin ([7]; all lymphomas, 24 hours incubation, WST-1): far below IC50 of metformin | sensitivity of lymphoma cell lines (viability) ([7]; human B and T lymphoma, 24 hours, 1 μM to 200 μM): sensible to compound 1 | toxicity on cells with or without LKB1 (viability) [8]: more toxic for the cells that do not express the LKB1 protein | IC50 compared with IC50 of metformin ([9]; 24 hours incubation): far below IC50 of metformin | IC50 ([9]; Rattus norvegicus, INS1, 24 hours incubation): < 10 µM

N=C(Nc1ccc2ccccc2c1)SCCCCCCSC(=N)Nc1ccc2ccccc2c1 [compound 4]
number of living cells [10]: induces a differential decrease in the number of living cells | apoptosis (apoptotic cells/cell decrease) [11]: can induce apoptosis
